Measured values from ChEMBL document CHEMBL1201862, “PubChem BioAssay data set” (2004).
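Briefly, cells in 96-well plates were exposed to five compound concentrations for 48 h, and endpoints were estimated by linear interpolation. GI50 marks 50% less growth.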 The source made the active and inactive calls. No stated cut-off is given here; in the data, active = GI50 up to about 1.1 µM and inactive = higher.

Legend:
Experiment in all cases: DTP human tumour cell line panel, 48 h
[1] = tested on: DMS-114
[2] = tested on: DMS-273
[3] = tested on: HOP-18
[4] = tested on: KM-20L2
[5] = tested on: LXFL 529
[6] = tested on: M19-MEL
[7] = tested on: RXF 631
[8] = tested on: SNB-78
[9] = tested on: XF498

Measured: GI50

CCCCCCCCCCCCC(CC)CCCCC(=O)O (centres undefined)
inactive: [1] > 100 µM | [2] > 100 µM | [3] > 100 µM | [4] > 100 µM | [5] > 100 µM | [6] > 100 µM | [7] > 100 µM | [8] > 100 µM | [9] > 100 µM

COc1ccc(C(=C[N+](=O)[O-])c2ccc(OC)cc2)cc1
inactive: [1] 4.13 µM | [2] 2.74 µM | [3] > 100 µM | [4] 10.6 µM | [5] 16.2 µM | [7] 14 µM | [8] 14.7 µM

O=C(/C=C\c1cccc2ccccc12)c1ccc(Br)cc1
inactive: [1] 15 µM | [2] 16.7 µM | [3] 19.2 µM | [4] 16.3 µM | [5] 18.1 µM | [6] 19 µM | [8] 20.6 µM

CCOC(=O)C1=C(Nc2ccccc2)SC/C1=N\NC(=O)Cc1ccccc1
inactive: [2] > 100 µM | [3] > 100 µM | [4] > 100 µM | [5] > 100 µM | [6] > 100 µM | [7] > 100 µM | [8] > 100 µM | [9] > 100 µM

O=C(Nc1ccc(Sc2ccc(/N=N/c3c(O)c(S(=O)(=O)O)cc4cc(S(=O)(=O)O)ccc34)cc2)cc1)c1ccc(/N=N/c2c(O)ccc3c(S(=O)(=O)O)cc(S(=O)(=O)O)cc23)cc1
inactive: [2] 25.9 µM | [3] 33 µM | [4] 58.7 µM | [5] 25.2 µM | [6] 16.6 µM | [7] 41.3 µM | [8] 36.4 µM | [9] 28.2 µM

COc1cc2c(cc1OC)C1(c3ccccc3)ON=C(c3ccccc3)N1CS2 (centres undefined)
inactive: [1] > 100 µM | [2] > 100 µM | [3] > 100 µM | [4] > 100 µM | [5] > 100 µM | [6] > 100 µM | [7] > 100 µM | [8] > 100 µM | [9] > 100 µM

CCOC(=O)[C@H]1Nc2ccc([N+](=O)[O-])cc2C2c3ccccc3CC21 (some centres undefined)
inactive: [1] 15.9 µM | [2] 12.6 µM | [4] 20.6 µM | [5] 5.79 µM | [6] 20.8 µM | [8] 42.1 µM | [9] 30 µM

CCOC(=O)C1Cc2ccc3c4c(ccc(c24)C1)CC(C(=O)OCC)C3
inactive: [1] > 100 µM | [2] > 100 µM | [3] > 100 µM | [4] > 100 µM | [6] > 100 µM | [8] > 100 µM | [9] > 100 µM

COc1ccc2c(=O)c([Se]c3coc4cc(OC)ccc4c3=O)coc2c1
inactive: [1] 17.4 µM | [2] 53.2 µM | [3] > 100 µM | [4] > 100 µM | [5] 32.5 µM | [6] 28.3 µM | [8] 22.7 µM | [9] > 100 µM

Cc1cc2occ(C)c(=O)c2c2c1OC(C)(C)S2
inactive: [1] > 100 µM | [2] > 100 µM | [3] > 100 µM | [4] > 100 µM | [5] > 100 µM | [6] > 100 µM | [9] > 100 µM

CCN(CC)CCC(=O)N1C/C(=C/c2ccccc2)C(=O)/C(=C\c2ccccc2)C1
inactive: [1] 1.79 µM | [2] 1.42 µM | [3] 2.8 µM | [4] 1.71 µM | [5] 1.56 µM | [6] 1.39 µM | [9] 2.63 µM
